US11413297B2, “Therapies for treating and preventing chronic rhinosinusitis” (Avanti Polar Lipids, LLC, priority 2017, dated 2022)
“Also recorded” adds a separate entry of the source.

Assays:
Assay type in all cases: cell-based
S. aureus = assay: Inhibition of growth of planktonic S. aureus, OD600 (Example 8); settings: in combination with gentamicin, compared to gentamicin alone; 6 h; phospholipid 256, 512, 1024 μg/ml
Method: (§1) We performed in vitro studies of the capacity of phospholipids together with antibiotics to inhibit the growth of planktonic bacteria. The tests were conducted as follows. Freshly grown S. aureus was quantitated and placed in 96-well plates together with gentamicin alone, phospholipids plus gentamicin, or control solutions. Two different phospholipids (MAPCHO-10 and MAPCHO-12) were tested at three different phospholipid test concentrations (256 μg/ml, 512 μg/ml, and 1024 μg/ml). After 24 hours at 37 degrees C., media was removed and fresh medium was added and the 96-well plates were incubated at 37 degrees C. for 6 hours. Bacterial density was then analyzed and measured at OD600.

[1] = system: S. aureus biofilm formation; assay: Prevention of S. aureus biofilm formation at 6 h, crystal violet (Example 9); settings: in combination with gentamicin, phospholipid 256, 512, 1024 μg/ml
Method: We performed in vitro tests of the capacity of phospholipids together with antibiotics to prevent formation of biofilms. Freshly grown S. aureus was quantitated and placed in 96-well plates together with gentamicin alone, phospholipids plus gentamicin, or control solutions. Two different phospholipids ([…]-10 and […]-12) were tested at three different phospholipid test concentrations (256 μg/ml, 512 μg/ml, and 1024 μg/ml). After 6 hours at 37 degrees C., the fluids were removed and the wells stained with crystal violet, and then the density of crystal violet in the wells was quantitated.

MRSA = assay: Inhibition of growth of planktonic MRSA, OD600 (Example 10); settings: in combination with gentamicin, compared to gentamicin alone; 6 h; phospholipid 256, 512, 1024 μg/ml
Method: as §1, with “MRSA” for “S. aureus”

[2] = system: preformed P. aeruginosa biofilms; assay: Disruption of preformed P. aeruginosa biofilms, crystal violet (Example 3); settings: for disruption of preformed P. aeruginosa biofilms: 6 h time point; for eradication of preformed P. aeruginosa biofilms: 24 h time point, FIGS. 5A-5C
Method: We performed in vitro studies of the capacity of phospholipids together with antibiotics to disrupt preformed bacterial biofilms. The tests were conducted as follows. Biofilm formation was obtained by culturing P. aeruginosa in cation-adjusted Mueller Hinton Broth after incubation at 37 degrees C. for 24 hours in 96 well plates. The medium was then removed and replaced by treatment solutions of gentamicin, phospholipids plus gentamicin, or control solutions. Either three or four different phospholipids (MAPCHO-10, MAPCHO-12, MAPCHO-14, and MAPCHO-16) were tested at three different phospholipid test concentrations (512 μg/ml, 1024 μg/ml, and 2048 μg/ml). After 24 hours at 37 degrees C., media was removed and fresh medium was added and the 96-well plates were incubated at 37 degrees C. for either 6 hours or 24 hours. Media were then removed and biofilm at the base of the wells was stained with crystal violet and quantitated.

P. aeruginosa [3] = assay: Inhibition of growth of planktonic P. aeruginosa, OD600 (Example 4); settings: in combination with gentamicin, compared to gentamicin alone
Method: We performed in vitro studies of the capacity of phospholipids together with antibiotics to inhibit the growth of planktonic bacteria. The tests were conducted as follows. Freshly grown P. aeruginosa was quantitated and placed in 96-well plates together with gentamicin alone, phospholipids plus gentamicin, or control solutions. Four different phospholipids (MAPCHO-10, MAPCHO-12, MAPCHO-14, and MAPCHO-16) were tested at two different phospholipid test concentrations (1024 μg/ml and 2048 μg/ml). After 24 hours at 37 degrees C., media was removed and fresh medium was added and the 96-well plates were incubated at 37 degrees C. for either 6 hours or 24 hours. Bacterial density was then analyzed and measured at OD600.

[4] = system: P. aeruginosa biofilm formation; assay: Prevention of P. aeruginosa biofilm formation, crystal violet (Example 5); settings: 24 h
Method: We performed in vitro tests of the capacity of phospholipids together with antibiotics to prevent formation of biofilms. Freshly grown P. aeruginosa was quantitated and placed in 96-well plates together with gentamicin alone, phospholipids plus gentamicin, or control solutions. Four different phospholipids (MAPCHO-10, MAPCHO-12, MAPCHO-14, and MAPCHO-16) were tested at two different phospholipid test concentrations (1024 μg/ml and 2048 μg/ml). After 24 hours at 37 degrees C., the fluids were removed and the wells stained with crystal violet, and then the density of crystal violet in the wells was quantitated.

P. aeruginosa [5] = assay: Prevention of P. aeruginosa bacterial growth, OD600 after 24 h (Example 6); settings: in combination with gentamicin, phospholipid 512, 1024, 2048 μg/ml, FIGS. 9A-9C
Method: We performed in vitro studies of the capacity of phospholipids together with antibiotics to prevent bacterial growth. Freshly grown P. aeruginosa was quantitated and placed in 96-well plates together with gentamicin alone, phospholipids plus gentamicin, or control solutions. Three different phospholipids (MAPCHO-12, MAPCHO-14, and MAPCHO-16) were tested at three different phospholipid test concentrations (512 μg/ml, 1024 μg/ml, and 2048 μg/ml). After 24 hours at 37 degrees C., bacterial density was then analyzed and measured at OD600.

[6] = system: P. aeruginosa in preformed biofilm; assay: Bacterial density of P. aeruginosa in preformed biofilm, OD600 (Example 7); settings: in combination with gentamicin; 6 h; phospholipid 512, 1024, 2048 μg/ml; FIGS. 10A-10D
Method: We performed in vitro studies of the capacity of phospholipids together with antibiotics to eradicate preformed bacterial biofilms. The tests were conducted as follows. Biofilm formation was obtained by culturing P. aeruginosa in cation-adjusted Mueller Hinton Broth after incubation at 37 degrees C. for 24 hours in 96 well plates. The medium was then removed and replaced by treatment solutions of gentamicin, phospholipids plus gentamicin, or control solutions. Four different phospholipids (MAPCHO-10, MAPCHO-12, MAPCHO-14, and MAPCHO-16) were tested at three different phospholipid test concentrations (512 μg/ml, 1024 μg/ml, and 2048 μg/ml). After 24 hours at 37 degrees C., media was removed and fresh medium was added and the 96-well plates were incubated at 37 degrees C. for 6 hours. Bacterial density was then analyzed and measured at OD600.

[7] = system: preformed S. aureus (ATCC BAA-1720) biofilms; assay: Disruption of preformed S. aureus biofilm, crystal violet staining (Example 1)
Method: We performed in vitro studies of the capacity of phospholipids together with antibiotics to disrupt preformed bacterial biofilms. The tests were conducted as follows. Biofilm formation was obtained by culturing (1) S. aureus in tryptic soy broth media supplemented with 5% glucose; and (2) P. aeruginosa in cation-adjusted Mueller Hinton Broth after incubation at 37 degrees C. for 24 hours in 96 well plates. The medium was then removed and replaced by treatment solutions of antibiotics, antibiotics+phospholipids, phospholipids alone, or control solutions. Phospholipid concentration used in the assays was 512 μg/ml although in some studies, was […]. After 24 hours at 37 degrees C., media was removed and fresh medium was added and the 96-well plates incubated at 37 degrees C. for 24 hours. Media were then removed and biofilm at the base of the wells was stained with crystal violet and quantitated.

[8] = system: S. aureus (ATCC BAA-1720) biofilm formation; assay: Prevention of S. aureus biofilm formation, crystal violet at 540 nm (Example 2); settings: 24 hours
Method: (§2) We also performed in vitro tests of the capacity of phospholipids together with antibiotics to prevent formation of biofilms. Freshly grown S. aureus and P. aeruginosa were quantitated and placed in 96-well plates together with phospholipids plus gentamicin and tobramycin (antibiotics), phospholipids alone, antibiotics alone or controls solution. After 24 hours at 37 degrees C., the fluids were removed and the wells stained with crystal violet, and then the density of crystal violet in the wells was quantitated by absorption of light at 540 nm.

[9] = system: S. aureus (NCTC 8325) biofilm formation; assay: Prevention of S. aureus (NCTC 8325) biofilm formation, crystal violet at 540 nm (Example 12); settings: 24 hours; for prevention of biofilm formation by S. aureus (NCTC 8325): agent alone (antibiotic alone at low concentrations, or phospholipid alone)
Method: as §2, with “(NCTC 8325)” for “and P. aeruginosa”, “(antibiotics) or” for “(antibiotics), phospholipids alone,”, “alone.” for “alone or controls solution.”

MRSA biofilm formation = assay: Prevention of MRSA biofilm formation at 6 h, crystal violet (Example 11); settings: in combination with gentamicin, phospholipid 512 μg/ml and 1024 μg/ml
Method: We performed in vitro tests of the capacity of phospholipids together with antibiotics to prevent formation of biofilms. Freshly grown MRSA was quantitated and placed in 96-well plates together with gentamicin alone, phospholipids plus gentamicin, or control solutions. Two different phospholipids (MAPCHO-10 and MAPCHO-12) were tested at three different phospholipid test concentrations (256 μg/ml, 512 μg/ml, and 1024 μg/ml). After 6 hours at 37 degrees C., the fluids were removed and the wells stained with crystal violet, and then the density of crystal violet in the wells was quantitated.

[10] = in combination with gentamicin, phospholipid 512, 1024 and 2048 μg/ml, FIGS. 4B-4D
[11] = in combination with gentamicin, phospholipid 512, 1024 and 2048 μg/ml
[12] = 6 h time point, phospholipid 1024 and 2048 μg/ml
[13] = in combination with gentamicin, phospholipid 1024 or 2048 μg/ml, FIGS. 8B, 8C
[14] = agent alone (gentamicin alone or phospholipid alone)
[15] = agent alone (gentamicin alone at low concentrations, or phospholipid alone)

Compound	inhibition of S. aureus growth (S. aureus)	prevention of S. aureus biofilm formation compared to gentamicin alone [1]	inhibition of MRSA growth (MRSA)	disruption of preformed P. aeruginosa biofilms [2, 10]	eradication of preformed P. aeruginosa biofilms [2, 11]	inhibition of P. aeruginosa growth (P. aeruginosa [3]; [12])	prevention of P. aeruginosa biofilm formation [4, 13]	inhibition of P. aeruginosa bacterial growth relative to gentamicin alone (P. aeruginosa [5])	inhibition of P. aeruginosa bacterial growth in preformed biofilm relative to gentamicin alone [6]	disruption of preformed biofilm of S. aureus [7, 14]	prevention of biofilm formation by S. aureus [8, 15]	prevention of biofilm formation by S. aureus (NCTC 8325) [9]	further results
CCCCCCCCCCOP(=O)([O-])OCC[N+](C)(C)C [MAPCHO-10, N-decylphosphocholine]	moderate inhibition	more effective	moderate inhibition										
CCCCCCCCCCCCCCOP(=O)([O-])OCC[N+](C)(C)C [MAPCHO-14, N-tetradecylphosphocholine]				disruption of P. aeruginosa biofilms occurs	nearly complete eradication	moderate inhibition	effective at preventing	more effective	more effective				inhibition of P. aeruginosa growth (P. aeruginosa [3]; 24 h time point, phospholipid 1024 and 2048 μg/ml): significant inhibition
gentamicin [reference compound]										not successful	does not prevent the formation of the biofilm	did not prevent the formation of the biofilm	disruption of preformed P. aeruginosa biofilms ([2]; gentamicin alone, FIG. 4A): did not induce biofilm disruption; prevention of P. aeruginosa biofilm formation ([4]; gentamicin alone, FIG. 8A): unable to prevent
CCCCCCCCCCCCCCCCOP(=O)([O-])OCC[N+](C)(C)C [MAPCHO-16]				disruption of P. aeruginosa biofilms occurs	nearly complete eradication		effective at preventing	more effective	more effective				
CCCCCCCCCCCCOP(=O)([O-])OCC[N+](C)(C)C [MAPCHO-12, N-dodecylphosphocholine]	strong inhibition	more effective	strong inhibition	disruption of P. aeruginosa biofilms occurs	nearly complete eradication	moderate inhibition	effective at preventing		more effective	did not disrupt the biofilm	did not prevent biofilm formation	did not prevent biofilm formation	disruption of preformed biofilm of S. aureus ([7]; phospholipid together with gentamicin, FIG. 2): disrupt preformed biofilm; sterilization of S. aureus on disruption of the biofilm ([7]; phospholipid/gentamicin combination): sterilized; prevention of biofilm formation by S. aureus ([8]; phospholipid combined with gentamicin at low concentrations, FIG. 3): did prevent biofilm formation; inhibition of P. aeruginosa growth (P. aeruginosa [3]; 24 h time point, highest phospholipid dose 2048 μg/ml): significant inhibition; prevention of MRSA biofilm formation compared to gentamicin alone (MRSA biofilm formation): tends to be more effective; effect on formation of biofilm by S. aureus (NCTC 8325) ([9]; 512 μg dose of phospholipid in combination with gentamicin, FIGS. 15, 16): positive effects; also recorded: able to prevent biofilm formation; effect on formation of biofilm by S. aureus (NCTC 8325) ([9]; 512 μg dose of phospholipid in combination with tobramycin, FIGS. 15, 17): positive effects; also recorded: able to prevent biofilm formation
NC[C@H]1O[C@H](O[C@H]2[C@H](O)[C@@H](O[C@H]3O[C@H](CO)[C@@H](O)[C@H](N)[C@H]3O)[C@H](N)C[C@@H]2N)[C@H](N)C[C@@H]1O [tobramycin, reference compound]												did not prevent the formation of the biofilm	
